According to patent publication US9518015B2, “EP1 receptor ligands” (LABORATORIOS DEL DR. ESTEVE, S.A., priority 2011, dated 2016):
Counter-ions that a name gives are not always drawn.

Key:
human EP1 receptor [1] = target: T1, human EP1 receptor (Homo sapiens, UniProt P34995); experiment: Test 1: Human EP1 receptor radioligand binding assay ([3H]-PGE2, transfected HEK-293 cell membranes); design: expressed in transfected cells; host or cells: HEK-293 cell membranes; settings: for inhibition at 10 µM: read-out: Results of Test 1 (Binding assay), % inh; for Results of Test 1 (Binding assay), % inh: at 10 μM
T1 sequence (P34995 1-402): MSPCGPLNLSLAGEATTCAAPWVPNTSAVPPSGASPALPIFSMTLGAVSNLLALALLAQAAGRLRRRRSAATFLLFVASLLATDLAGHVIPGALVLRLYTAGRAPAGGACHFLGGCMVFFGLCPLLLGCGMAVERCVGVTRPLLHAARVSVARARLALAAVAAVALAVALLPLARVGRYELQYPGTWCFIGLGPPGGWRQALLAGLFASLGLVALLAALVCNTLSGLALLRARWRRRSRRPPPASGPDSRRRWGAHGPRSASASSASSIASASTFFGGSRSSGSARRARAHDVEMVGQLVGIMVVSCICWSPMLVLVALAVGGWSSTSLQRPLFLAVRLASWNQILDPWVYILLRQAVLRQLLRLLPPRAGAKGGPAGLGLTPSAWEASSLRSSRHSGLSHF
Method in brief: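 Membranes from transfected HEK-293 cells (30 μg protein) incubated with 10 nM [3H]-PGE2 in pH 6.0 MES buffer for 60 min at 25° C., then filtered and counted by scintillation. Percent inhibition set against total binding and 10 μM PGE2 non-specific binding.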

human EP1 receptor [2] = target: T1, human EP1 receptor; experiment: Test 3: Measurement of IP1 responses by HTRF, HEK-293 cells stably expressing human EP1 receptors incubated o/n, PGE2 10 nM; type: cell-based; design: expressed in transfected cells; settings: for inhibition at 10 µM: HEK293, read-out: Results of Test 3 (Functional assay), % inh; for Results of Test 3 (Functional assay), % inh: at 10 μM
Procedure: Test 3: Measurement of IP1 Responses by Homogeneous Time Resolved Fluorescence
IP1 measurements on HEK-293 cells that stably expressed human EP1 receptors were performed by using a system based on Homogeneous Time Resolved Fluorescense (HTRF) (Gabriel et al., 2003). This technology allows the direct measurement of IP1 in living cells. The principle of this assay is based on competition between IP1 produced by cells and IP1-d2 conjugate for the binding with monoclonal anti-IP1-cryptate conjugate. The HTRF IP1 kit from CisBio was used according to the manufacturer's directions. The experimental procedure was performed as stated below.
40,000 cells per well were added to 96-well culture plates in 40 μl of Optimem and incubated o/n at 37° C. Optimem was replaced by 40 μl of stimulation buffer (supplied by the kit) and compounds were then added in 20 μl of stimulation buffer and incubated at 37° C. for 15 minutes followed by 10 μl of PGE2 to a final concentration of 10 nM. After 90 minutes at 37° C., the reaction was stopped lysing the cells with a mixture of 15 μl of cryptate and 15 μl of IP1-d2 prepared in the lysis buffer supplied by the manufacturer. Plates were incubated for an additional hour at room temperature and read at 665 nm/620 nm using an UltraEvolution Plate reader (Tecan).
Antagonist percentage inhibition was calculated relating compounds activity to the 0% inhibition of the wells incubated with 10 nM PGE2 alone and 100% inhibition of the wells incubated with 10 nM PGE2 plus 10 μM of the reference antagonist.

inhibition at 10 µM (human EP1 receptor [1]) | inhibition at 10 µM (human EP1 receptor [2]) | Results of Test 1 (Binding assay), % inh (human EP1 receptor [1]) | Results of Test 3 (Functional assay), % inh (human EP1 receptor [2]) | Structure (SMILES)
> 75% | > 75% |  |  | O=C(O)c1ccnc2c1cnn2Cc1cc(Cl)ccc1OCc1ccc(Cl)cc1F [Example 212, sodium 1-{5-chloro-2-[(4-chloro-2-fluorobenzyl)oxy]benzyl}-1H-pyrazolo[3,4-b]pyridine-4-carboxylate]
> 75% | > 75% |  |  | O=C(O)c1ccnc2c1CCN2Cc1cc(Cl)ccc1OCc1ccc(Cl)cc1F [Example 216, sodium 1-{5-chloro-2-[(4-chloro-2-fluorobenzyl)oxy]benzyl}-2,3-dihydro-1H-pyrrolo[2,3-b]pyridine-4-carboxylate]
 |  | # (% inh > 75) | $ (% inh > 75) | O=C([O-])c1ccnc2c1CCN2Cc1cc(Cl)ccc1OCc1ccc(F)cc1F.[Na+] [Example 217]
 |  | # (% inh > 75) | $ (% inh > 75) | O=C([O-])c1ccnc2c1CCN2Cc1cc(Cl)ccc1OCc1ccc(F)cc1.[Na+] [Example 220]
 |  | # (% inh > 75) | $ (% inh > 75) | CC(C)(F)COc1ccc(Cl)cc1CN1CCc2c(C(=O)[O-])ccnc21.[Na+] [Example 221]
> 75% | > 75% |  |  | O=C(O)c1cncc2c1CCCN2Cc1cc(Cl)ccc1OCc1ccc(Cl)cc1F [Example 226, Sodium 1-{5-chloro-2-[(4-chloro-2-fluorobenzyl)oxy]benzyl}-1,2,3,4-tetrahydro-1,7-naphthyridine-5-carboxylate]
> 75% | > 75% |  |  | O=C(O)c1cncc2c1CCCN2Cc1cc(Cl)ccc1OCc1ccc(F)cc1F [Example 227]
> 75% | 45 to 75% |  |  | CN(C)S(=O)(=O)NC(=O)c1cccc2c1CCCN2Cc1cc(Cl)ccc1OCc1ccc(Cl)cc1F [Example 237, 1-{5-chloro-2-[(4-chloro-2-fluorobenzyl)oxy]benzyl}-N-[(dimethylamino)sulfonyl]-1,2,3,4-tetrahydroquinoline-5-carboxamide sodium salt]
> 75% | > 75% |  |  | O=C(O)c1cncc2c1CCCN2Cc1ccccc1OCc1ccc(Cl)cc1F [Example 240]
> 75% | > 75% |  |  | CC(C)(F)COc1ccc(Cl)cc1CN1CCCc2c(C(=O)O)cncc21 [Example 242]
> 75% | > 75% |  |  | O=C(O)c1cncc2c1CCCN2Cc1cc(F)ccc1OCc1ccc(F)cc1F [Example 243]
> 75% | > 75% |  |  | O=C(O)c1cncc2c1CCN2Cc1cc(Cl)ccc1OCc1ccc(Cl)cc1F [Example 248, sodium 1-{5-chloro-2-[(4-chloro-2-fluorobenzyl)oxy]benzyl}-2,3-dihydro-1H-pyrrolo[2,3-c]pyridine-4-carboxylate]

Structure (SMILES) | inhibition at 10 µM (human EP1 receptor [1]) | inhibition at 10 µM (human EP1 receptor [2]) | Results of Test 1 (Binding assay), % inh (human EP1 receptor [1]) | Results of Test 3 (Functional assay), % inh (human EP1 receptor [2])
CC(C)COc1ccc(Cl)cc1CN1CCc2c(C(=O)NS(C)(=O)=O)ccnc21 [Example 234, 1-(5-chloro-2-isobutoxybenzyl)-N-(methylsulfonyl)-2,3-dihydro-1H-pyrrolo[2,3-b]pyridine-4-carboxamide sodium salt] | > 75% | > 75% |  | 
